According to patent publication US8158606B2, “β-L-2′-deoxynucleosides for the treatment of resistant HBV strains and combination therapies” (priority 2002, dated 2012):
Read-outs that look alike come from different tables or passages of the source.

Assay: Single-dose bioavailability of L-dC in the woodchuck
Type: in vivo
Conditions: for half-life: in vivo, read-out: t1/2 of L-dC (converted); for bioavailability: po, 10 mg/kg, L-dC 10 mg/kg PO vs IV; for AUC(0-t): read-out: AUCt→24 of L-dC
Description: Plasma drug levels, CL, ty, and F were determined.

[1] = plasma, L-dC 10 mg/kg single IV dose, mean
[2] = plasma, L-dC 10 mg/kg single PO dose, mean

Nc1ccn([C@@H]2CC(O)[C@H](CO)O2)c(=O)n1 (stereo partly drawn) [L-dC, 2′-Deoxy-β-L-cytidine]
half-life (L-dC 10 mg/kg single IV dose, mean): 2.85 h
half-life (L-dC 10 mg/kg single PO dose, mean): 5.22 h
bioavailability (plasma, read-out: oral bioavailability (F), average): 9.57%
bioavailability (plasma, read-out: oral bioavailability, range of animals): 5.6 to 16.9%
Tmax (plasma, L-dC 10 mg/kg single IV dose): 0 h
Vd [1]: 1.17 L/kg
clearance [1]: 6.5 mL/min/kg
Cmax (plasma, L-dC 10 mg/kg single IV dose, mean, at 2 minutes post-dose): 112 µM
AUC(0-t) (plasma, L-dC 10 mg/kg single IV dose, n=3, t = 0.033 hours, mean): 174 µM·h
Cmax [2]: 1.37 µM
Tmax [2]: 3 h
AUC(0-t) (plasma, L-dC 10 mg/kg single PO dose, n=3, t = 0.25 hours, mean): 11.3 µM·h
